Results as given in PMC9697519, “New Theonellapeptolides from Indonesian Marine Sponge Theonella swinhoei as Anti-Austerity Agents” (Marine Drugs, 2022).
Read-outs that look alike come from different tables or passages of the source. Where a SMILES comes first, the peptide text is derived from it. Bridges are numbered along the chain shown (N, C = ends). [ ]: non-standard residue; d: D form. The star is where a group is joined. dNMeaIle = CC[C@H](C)[C@@H](NC)C(=O)O; d(aIle) = CC[C@H](C)[C@@H](N)C(=O)O; NMeI = CC[C@H](C)[C@H](NC)C(=O)O; dNMeL = CN[C@H](CC(C)C)C(=O)O; NMeV = CN[C@H](C(=O)O)C(C)C; Methoxyacetyl = COCC(=O)*; βAla = NCCC(=O)O

How the values were obtained:
[1] = system: human pancreatic cancer cell line MIA PaCa-2; conditions: 24 h
Protocol: Data are presented as preferential cytotoxicity (PC50) values, which represent the concentration that kills 50% of cancer cells in a nutrient-deprived medium (NDM) without any toxicity in a nutrient-rich medium DMEM (Dulbecco’s Modified Eagle Medium).
(§1) Briefly, MIA PaCa-2, HepG2 and MCF-7 Cells (2 × 10^4 cells/well) were seeded in 96-well plates and incubated in fresh DMEM. The cells were washed with Dulbecco’s phosphate-buffered saline (PBS) before the medium was replaced with DMEM or NDM containing serial dilutions of the test samples. After 24 h of incubation, the cells were washed with PBS, and 100 μL of DMEM containing 10% WST-8 cell counting kit solution was added to each well. After 3 h of incubation, the absorbance was measured at 450 nm. Cell viability was calculated from the mean values for three wells. The preferential cytotoxicity was expressed as the concentration at which 50% of cells died preferentially in NDM (PC50).
Pancreatic cancer cells (MIA PaCa-2 cells) were kindly provided by Dr. Suresh Awale, an Associate Professor at Institute of Natural Medicine, University Toyama, Toyama, Japan. MIA PaCa-2 (RBRC-RCB2094), human pancreatic cancer cell lines were purchased from Riken BRC cell bank.

[2] = system: MIA PaCa-2 cells; assay: Colony formation assay; assay type: cell-based, human; conditions: then fresh DMEM 10 days, 500 cells/well, three replicates
Protocol: Figure 6 (A) Morphological changes of MIA PaCa-2 cells induced by 4 in a nutrient-deprived medium (NDM). MIA PaCa-2 tumor cells were treated with 4 at the indicated concentrations in NDM in a 24-well plate and incubated for 24 h. The cells were stained with ethidium bromide (EB) and acridine orange (AO), and photographed in the fluorescence (red and green) under phase contrast modes using a Nikon sCMOS camera oxford instrument, Hamamatsu Photonics/Ti-E. (B) Structure of bioactive compound 4. (C) Effect of 4 on colony formation by MIA PaCa-2 cells in DMEM. (a) Graph showing the average values of the area occupied by MIA PaCa-2 cell colonies (three replicates). **** p < 0.0001 compared to the untreated control group. (b) Representative wells showing colonies of MIA PaCa-2 cells.
Pancreatic cancer cells have a great ability to migrate to surrounding tissues, growing and forming new colonies after metastasis in distant organs with sufficient nutrition. These processes are responsible for the majority of deaths from pancreatic cancer. The phenomenon is called “colonization”, and occurs during cancer metastasis. Migrating pancreatic cancer cells are likely to form small colonies (micrometastases), which then become large tumors. The discovery of potential inhibitors of the colony-forming ability of pancreatic cancer represents a promising approach to prevent pancreatic tumor metastasis. […] Therefore, theonellapeptolides isolated from marine origin were studied for their ability to inhibit MIA PaCa-2 colony formation. MIA PaCa-2 cells (500 cells/well) were placed in a 24-well plate and treated with 4 at 12.5, 25, and 50 μM (non-cytotoxic concentrations) in DMEM for 24 h.
Subsequently, the medium was replaced with fresh DMEM, and the cells were allowed to grow as colonies for 10 days in a humified CO2 incubator at 37 °C. […]
Colony Formation inhibitory effect of 4 at different concentrations against MIA PaCa-2 cells was determined as described previously.

[3] = system: MCF-7 (human breast cancer cells); conditions: 24 h
Protocol: (§2) Finally, the anti-austerity activity on two other different cancer cell lines was studied. Preferential cytotoxicity was assessed in a nutrient-deprived medium. Esumi et al. hypothesized that tolerance to nutrient deprivation as well as angiogenesis might be an important factor in tumor progression under hypovascular condition.
as §1

[4] = system: HepG2 (human liver cancer cells); conditions: 24 h
Protocol: as §2, §1

How did the IC50 ([1]; read-out: IC50 in DMEM, MIA PaCa-2, nutrient-rich DMEM, WST-8, absorbance 450 nm, mean of three wells) turn out when CC[C@H](C)[C@H]1C(=O)NCCC(=O)N[C@H]([C@@H](C)CC)C(=O)N(C)[C@@H](C(C)C)C(=O)N[C@@H](C)C(=O)NCCC(=O)N[C@H](CC(C)C)C(=O)N(C)[C@H]([C@@H](C)CC)C(=O)O[C@H](C)[C@H](NC(=O)[C@@H](CC(C)C)N(C)C(=O)[C@@H](NC(=O)COC)C(C)C)C(=O)NCCC(=O)N[C@H](CC(C)C)C(=O)N1C [Compound 4, theonellapeptolide IId] (Methoxyacetyl-V[dNMeL]T[βAla][dL][NMeI][βAla][d(aIle)][NMeV]A[βAla][dL][dNMeaIle]; ester 3-C) was run?
The IC50 was 38.2 µM.

And the IC50 ([1]; read-out: PC50 in NDM, MIA PaCa-2, preferential cytotoxicity, nutrient-deprived medium (NDM), WST-8, mean of three wells)?
The IC50 was 7.8 µM.

What about the “total well area occupied by colonies” value ([2]; 12.5 μM in DMEM for 24 h) of the same compound?
Its value is 100%.

What about the colony formation ([2]; 25 μM in DMEM for 24 h) of the same compound?
Its colony formation is “total inhibition of colony formation”.

And the colony formation ([2]; 50 μM in DMEM for 24 h)?
The colony formation was “total inhibition of colony formation”.

What about the IC50 ([3]; read-out: IC50 in DMEM, MCF7, nutrient-rich DMEM, WST-8, absorbance 450 nm, mean of three wells) of the same compound?
The IC50 was over 100 µM.

And the IC50 ([3]; read-out: PC50 in NDM, MCF7, preferential cytotoxicity, nutrient-deprived medium (NDM), WST-8, mean of three wells)?
The IC50 was over 100 µM.

What about the IC50 ([4]; read-out: IC50 in DMEM, HepG2, nutrient-rich DMEM, WST-8, absorbance 450 nm, mean of three wells) of the same compound?
The IC50 was over 100 µM.

What about the IC50 ([4]; read-out: PC50 in NDM, HepG2, preferential cytotoxicity, nutrient-deprived medium (NDM), WST-8, mean of three wells) of the same compound?
Its IC50 is over 100 µM.
